This is an account of results in paper PMC4854315, “Discovery of a novel allosteric inhibitor-binding site in ERK5: comparison with the canonical kinase hinge ATP-binding site” (Acta Crystallographica. Section D, Structural Biology, 2016).

Holding throughout (assay): Z'-LYTE kinase panel
Common to all, as to format: biochemical

One assay concerns the target T1, CLK3 (Homo sapiens, UniProt P49761).
T1 construct: purchased ThermoFisher (SelectScreen, Z'-LYTE)
In short, it runs like this: (§1)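 Single-point screen, 10 µM compound; % inhibition read by Z′-LYTE (FRET-based) format per standard protocol; 225-kinase panel.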

For the next assay, the target named is T2, DYRK3 (Homo sapiens, UniProt O43781).
T2 construct: purchased ThermoFisher (SelectScreen, Z'-LYTE)
T2 sequence (O43781 1-588): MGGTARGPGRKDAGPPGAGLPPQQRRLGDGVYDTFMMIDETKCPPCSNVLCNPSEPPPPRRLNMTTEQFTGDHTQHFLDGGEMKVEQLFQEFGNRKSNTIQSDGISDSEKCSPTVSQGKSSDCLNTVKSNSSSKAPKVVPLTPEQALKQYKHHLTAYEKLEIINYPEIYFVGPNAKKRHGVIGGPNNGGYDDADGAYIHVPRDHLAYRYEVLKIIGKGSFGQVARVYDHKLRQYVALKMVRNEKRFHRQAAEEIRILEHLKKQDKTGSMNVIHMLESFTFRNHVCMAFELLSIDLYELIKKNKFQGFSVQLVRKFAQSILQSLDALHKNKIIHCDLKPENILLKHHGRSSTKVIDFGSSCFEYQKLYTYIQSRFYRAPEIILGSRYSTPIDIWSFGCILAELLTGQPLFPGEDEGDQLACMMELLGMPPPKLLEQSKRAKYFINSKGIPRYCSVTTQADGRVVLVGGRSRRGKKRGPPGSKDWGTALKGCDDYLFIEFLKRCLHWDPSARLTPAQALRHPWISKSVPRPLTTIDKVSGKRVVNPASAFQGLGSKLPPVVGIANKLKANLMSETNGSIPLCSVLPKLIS
In short, it runs like this:
as §1

The target of the next assay is T3, MARK1 (MARK) (Homo sapiens, UniProt Q9P0L2).
T3 construct: purchased ThermoFisher (SelectScreen, Z'-LYTE)
In short, it runs like this:
as §1

For the next assay, the target named is T4, PRKCZ (PKC zeta) (Homo sapiens, UniProt Q05513).
T4 construct: purchased ThermoFisher (SelectScreen, Z'-LYTE)
T4 sequence (Q05513 1-592): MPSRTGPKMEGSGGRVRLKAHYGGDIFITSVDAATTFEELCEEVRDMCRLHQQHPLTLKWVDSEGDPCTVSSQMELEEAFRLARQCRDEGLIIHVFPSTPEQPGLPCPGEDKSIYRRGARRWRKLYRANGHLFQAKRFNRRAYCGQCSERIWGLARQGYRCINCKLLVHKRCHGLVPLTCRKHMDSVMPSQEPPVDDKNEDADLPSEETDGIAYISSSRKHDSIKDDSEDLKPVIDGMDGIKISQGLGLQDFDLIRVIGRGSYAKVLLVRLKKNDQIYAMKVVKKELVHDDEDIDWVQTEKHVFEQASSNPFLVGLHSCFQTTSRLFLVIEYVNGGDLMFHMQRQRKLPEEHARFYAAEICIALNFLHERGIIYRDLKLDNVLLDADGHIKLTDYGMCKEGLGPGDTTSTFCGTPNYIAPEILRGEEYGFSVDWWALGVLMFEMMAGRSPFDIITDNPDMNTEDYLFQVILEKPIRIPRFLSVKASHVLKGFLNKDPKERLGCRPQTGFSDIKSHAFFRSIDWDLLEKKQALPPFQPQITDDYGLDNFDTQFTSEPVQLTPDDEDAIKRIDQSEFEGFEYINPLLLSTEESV
In short, it runs like this:
as §1

Another assay deals with T5, SGK2 (Homo sapiens, UniProt Q9HBY8).
T5 construct: purchased ThermoFisher (SelectScreen, Z'-LYTE)
T5 sequence (Q9HBY8 1-367): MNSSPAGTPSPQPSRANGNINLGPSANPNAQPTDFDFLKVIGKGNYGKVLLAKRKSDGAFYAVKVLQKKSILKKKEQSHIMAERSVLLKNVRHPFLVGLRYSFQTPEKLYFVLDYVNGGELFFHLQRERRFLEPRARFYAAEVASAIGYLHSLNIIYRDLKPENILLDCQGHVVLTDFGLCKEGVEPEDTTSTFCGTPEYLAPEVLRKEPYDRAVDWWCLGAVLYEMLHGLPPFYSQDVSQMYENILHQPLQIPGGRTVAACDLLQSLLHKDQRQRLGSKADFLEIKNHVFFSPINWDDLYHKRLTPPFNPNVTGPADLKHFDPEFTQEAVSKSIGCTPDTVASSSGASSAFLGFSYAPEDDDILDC
In short, it runs like this:
as §1

In the next assay the target is T6, TAOK2 (TAO1) (Homo sapiens, UniProt Q9UL54).
T6 construct: purchased ThermoFisher (SelectScreen, Z'-LYTE)
T6 sequence (Q9UL54 1-1235): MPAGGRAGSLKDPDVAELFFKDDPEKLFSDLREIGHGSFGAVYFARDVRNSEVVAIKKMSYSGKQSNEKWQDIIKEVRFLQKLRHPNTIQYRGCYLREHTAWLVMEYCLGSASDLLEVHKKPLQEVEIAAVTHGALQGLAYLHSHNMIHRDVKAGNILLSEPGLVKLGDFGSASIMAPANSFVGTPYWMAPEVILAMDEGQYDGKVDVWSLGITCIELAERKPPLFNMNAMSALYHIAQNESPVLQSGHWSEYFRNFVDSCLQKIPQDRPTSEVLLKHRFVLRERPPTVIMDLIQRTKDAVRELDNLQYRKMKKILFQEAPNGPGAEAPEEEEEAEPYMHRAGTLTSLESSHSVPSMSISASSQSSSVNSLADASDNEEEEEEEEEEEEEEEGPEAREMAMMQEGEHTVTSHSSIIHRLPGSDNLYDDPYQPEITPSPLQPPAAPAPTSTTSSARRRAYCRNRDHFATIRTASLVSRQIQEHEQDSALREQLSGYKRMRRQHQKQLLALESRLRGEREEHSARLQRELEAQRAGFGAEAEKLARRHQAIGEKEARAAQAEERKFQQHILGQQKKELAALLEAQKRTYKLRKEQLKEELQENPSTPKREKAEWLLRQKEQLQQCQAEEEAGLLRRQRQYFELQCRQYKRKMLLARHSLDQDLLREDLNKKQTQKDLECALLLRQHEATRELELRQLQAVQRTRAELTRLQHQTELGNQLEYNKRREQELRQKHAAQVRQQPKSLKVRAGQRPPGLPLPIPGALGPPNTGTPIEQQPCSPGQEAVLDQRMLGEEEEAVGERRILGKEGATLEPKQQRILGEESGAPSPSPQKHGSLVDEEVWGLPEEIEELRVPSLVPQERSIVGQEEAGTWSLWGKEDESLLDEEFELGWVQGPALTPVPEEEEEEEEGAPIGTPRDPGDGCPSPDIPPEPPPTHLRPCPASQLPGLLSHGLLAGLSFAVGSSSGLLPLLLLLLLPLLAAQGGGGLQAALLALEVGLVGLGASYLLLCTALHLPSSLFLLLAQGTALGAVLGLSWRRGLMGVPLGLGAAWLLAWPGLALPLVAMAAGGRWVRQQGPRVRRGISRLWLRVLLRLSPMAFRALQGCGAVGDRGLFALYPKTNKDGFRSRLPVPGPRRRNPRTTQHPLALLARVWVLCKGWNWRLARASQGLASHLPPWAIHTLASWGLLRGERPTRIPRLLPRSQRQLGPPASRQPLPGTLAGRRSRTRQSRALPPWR
In short, it runs like this:
as §1

T1 sequence (P49761 whole entry): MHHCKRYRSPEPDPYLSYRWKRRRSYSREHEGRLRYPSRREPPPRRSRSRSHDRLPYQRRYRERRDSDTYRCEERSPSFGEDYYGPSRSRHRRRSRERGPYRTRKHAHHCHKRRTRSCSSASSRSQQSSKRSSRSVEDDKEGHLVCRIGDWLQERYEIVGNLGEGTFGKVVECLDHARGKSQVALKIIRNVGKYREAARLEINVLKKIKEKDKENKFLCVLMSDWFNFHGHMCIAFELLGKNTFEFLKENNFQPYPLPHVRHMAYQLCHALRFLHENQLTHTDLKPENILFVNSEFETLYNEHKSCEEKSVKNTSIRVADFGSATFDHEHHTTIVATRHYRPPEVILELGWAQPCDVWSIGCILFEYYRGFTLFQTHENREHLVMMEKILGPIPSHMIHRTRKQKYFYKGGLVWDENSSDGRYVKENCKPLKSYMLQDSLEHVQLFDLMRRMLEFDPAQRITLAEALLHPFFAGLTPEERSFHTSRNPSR
T3 sequence (Q9P0L2 whole entry): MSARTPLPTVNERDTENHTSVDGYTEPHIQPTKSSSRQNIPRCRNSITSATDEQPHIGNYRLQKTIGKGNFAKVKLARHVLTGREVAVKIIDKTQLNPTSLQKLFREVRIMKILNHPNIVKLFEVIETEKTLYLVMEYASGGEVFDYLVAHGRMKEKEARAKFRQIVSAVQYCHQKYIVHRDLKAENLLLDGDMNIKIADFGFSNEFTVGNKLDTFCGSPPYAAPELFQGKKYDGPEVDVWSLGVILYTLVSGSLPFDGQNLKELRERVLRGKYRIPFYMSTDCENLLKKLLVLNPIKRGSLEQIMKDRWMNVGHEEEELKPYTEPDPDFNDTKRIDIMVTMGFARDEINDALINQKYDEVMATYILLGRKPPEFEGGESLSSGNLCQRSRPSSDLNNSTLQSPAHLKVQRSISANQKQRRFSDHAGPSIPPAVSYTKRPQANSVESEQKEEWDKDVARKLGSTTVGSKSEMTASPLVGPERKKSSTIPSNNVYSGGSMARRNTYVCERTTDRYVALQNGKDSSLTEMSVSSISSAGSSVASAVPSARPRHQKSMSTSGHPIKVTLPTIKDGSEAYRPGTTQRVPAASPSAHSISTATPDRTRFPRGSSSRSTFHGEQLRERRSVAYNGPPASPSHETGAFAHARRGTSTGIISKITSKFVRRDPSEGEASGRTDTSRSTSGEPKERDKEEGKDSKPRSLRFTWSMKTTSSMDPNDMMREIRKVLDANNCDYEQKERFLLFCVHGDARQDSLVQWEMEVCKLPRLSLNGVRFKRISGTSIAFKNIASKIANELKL

As for “XMD8-92 [Compound 2, reference compound]”, the “CLK3 % Inhibition” value on CLK3 (10 µM compound, ATP Km app) is recorded as 5.55%. For the same compound, the “DYRK3 % Inhibition” value at DYRK3 (10 µM compound, ATP Km app) amounted to 31%. For the same compound, the “MARK1 (MARK) % Inhibition” value at MARK1 (MARK) (10 µM compound, ATP Km app) was found to be 11%. The “PRKCZ (PKC zeta) % Inhibition” value at PRKCZ (PKC zeta) (10 µM compound, ATP Km app) is recorded as -2.33%. In addition, the “SGK2 % Inhibition” value on SGK2 (10 µM compound, ATP Km app) turned out to be 68%. In addition, the “TAOK2 (TAO1) % Inhibition” value on TAOK2 (TAO1) (10 µM compound, ATP Km app) was 39%.
What is called inhibition is the change of the read-out against control, counted positive when it falls. Turning to `Cc1cc(Nc2nc(N)nn2C(=O)NC(C)C)ccc1Cl` [Compound 5], the inhibition at 10 µM against CLK3 was 12%; on DYRK3, 0.141%; against MARK1 (MARK), 17%; on PRKCZ (PKC zeta), 4%; at SGK2, -20%; on TAOK2 (TAO1), 21%.
`Cc1ncc(-c2nc(Nc3ccc(C(=O)NCCN4CCCCC4)cc3)ncc2F)n1C(C)C` [Compound 3]: the inhibition at 10 µM turned out to be 71% against CLK3; 93% on DYRK3; 87% against MARK1 (MARK); 18% against PRKCZ (PKC zeta); 66% against SGK2; 97% at TAOK2 (TAO1).
